# Test results reported in patent EP4205737A1, “COMPOSITION FOR PREVENTION, AMELIORATION, OR TREATMENT OF INFLAMMATORY DISEASES OR IMMUNE DISEASES COMPRISING GANCAONIN N AS ACTIVE INGREDIENT” (UNIVERSITY-INDUSTRY COOPERATION GROUP OF KYUNG HEE …, priority 2020, dated 2022).
# Experiments:
# TNF-α = experiment: Western blotting of TNF-α protein in LPS-stimulated A549 cells; assay type: cell-based, human; conditions: LPS 5 µg/mL, 5 to 40 µM (FIG. 4A)
# Experimental: (§1) RAW264.7 cells and A549 cells were dispensed into 6-well plates (1 × 10^6 cells/well) and cultured under conditions of 37°C and 5% CO2. After the culturing, the Raw 264.7 cells were treated with 1 µg/mL of lipopolysaccharide (LPS) and the A549 cells were treated with 5 µg/mL of lipopolysaccharide (LPS) and with 5 µM to 40 µM of gancaonin N, and the cells were cultured for 24 hours or 6 hours. Then, the cells were lysed using a lysis buffer. In addition, the left lung extracted from each mouse was lysed using RIPA buffer. SDS-PAGE electrophoresis was performed on the cell and tissue lysates to separate proteins by side, and 5% bovine serum albumin was used for culturing and for blocking antibodies against PGE2 (1:500), IL-1β (1:500), IL-6 (1:500), TNF-α (1:500), i-NOS (1:500), COX-2 (1:1000), P-ERK1/2 (1:1000), ERK1/2 (1:3000), P-p38 (1:1000), p38 (1:3000), NF-κB p65 (1:1000), Lamin B1 (1:1000), and β-actin (1: 5,000).
# (§2) For the pro-inflammatory cytokines whose mRNA expression inhibition was confirmed as above, the expression level of the protein encoded by the mRNA was further checked. To determine the protein expression level, A549 cells were treated with LPS and gancaonin N as described in Examples 1 to 8, and the protein expression levels were checked.
# p65 = experiment: MAPK/NF-κB signaling pathway: p65 in LPS-stimulated A549 cells; assay type: cell-based, human
# Experimental: as §1
# A549 cells were dispensed into 6-well plates (1 × 10^4 cells/well) and cultured under conditions of 37°C and 5% CO2. After the culturing, the A549 cells were treated with of 5 ug/mL of lipopolysaccharide (LPS) and with 5 µM to 40 µM of gancaonin N, and the cells were then cultured for 6 hours. […] For fluorescence observation, EVOSR Cell Imaging systems (Thermo Fisher Scientific, Waltham, MA, USA) were used. […]
# RAW264.7 cells = experiment: Cell viability analysis (MTT), RAW264.7 cells; assay type: cell-based, murine; conditions: Raw264.7 cells, 5, 10, 20, 40 µM, 24 hours, compared to the control group (FIG. 1A)
# Experimental: (§3) RAW264.7 murine macrophage cells were purchased from Korean Cell Line Bank (in Seoul, South Korea). A549 human alveolar basal epithelial cells were purchased from American Type Culture Collection (in ATCC, MD, USA). The cells were cultured in DMEM medium (manufactured by Corning Inc., NY, USA) containing 10% FBS (manufactured by Gibco, NY, USA) and 1X antibiotic-antimycotic solution (manufactured by ABAM, Corning Inc., NY, USA) under conditions of 37°C and 5% CO2.
# (§4) To evaluate the cytotoxicity of gancaonin N, RAW264.7 cells and A549 cells were dispensed into 96-well plates (1 × 10^4 cells/well) and cultured under conditions of 37°C and 5% CO2. After the culturing, the cells were treated with gancaonin N at concentrations of 5, 10, 20, or 40 µM for 24 hours, and MTT solution (5 mg/mL) was added to each well. After adding 100 µL of dimethyl sulfoxide (DMSO, manufactured by Sigma-Aldrich, St. Louis, MO, USA), the absorbance was measured at 540 nm using a microplate reader (manufactured by Bio-Rad Hercules, CA, USA).
# (§5) To examine the cytotoxicity of gancaonin N, the inventors treated Raw264.7 cells and A549 cells with gancaonin N according to the methods of Examples 1 to 4 and then measured cell viability.
# p38 = experiment: MAPK/NF-κB signaling pathway: p38 in LPS-stimulated A549 cells; assay type: cell-based, human
# Experimental: as §1
# (§6) To identify through which pathway the anti-inflammatory response occurs, the role of gancaonin N in the MAPK/NF-κB signaling pathway was investigated. […]
# COX-2 = experiment: Western blotting of COX-2 protein in LPS-stimulated A549 cells; assay type: cell-based, human; conditions: LPS 5 µg/mL, 5 to 40 µM (FIG. 4D)
# Experimental: as §1, §2
# [1] = system: extracellular signal-regulated kinase (ERK); experiment: MAPK/NF-κB signaling pathway: ERK in LPS-stimulated A549 cells; assay type: cell-based, human
# Experimental: as §1, §6
# nitric oxide (NO) = experiment: Nitric oxide (NO) measurement (Griess reagent) in LPS-stimulated RAW264.7 cells; assay type: cell-based, murine; conditions: pretreated 2 hours before LPS 1 µg/mL, 5 to 40 µM, 24 hours, as treatment concentration increased (FIG. 2A)
# Experimental: Raw264.7 cells and A549 cells were dispensed into 6-well plates (6 × 10^5 cells/well) and cultured under conditions of 37°C and 5% CO2. After the culturing, the cells were treated with 1 µg/mL of lipopolysaccharide (LPS) and with 5 µM to 40 µM of gancaonin N and cultured for 24 hours, and the concentration of NO produced was determined using the cell culture supernatant. The production of NO was measured by reading the absorbance at 540 nm using Griess reagent. Then, a standard curve was drawn using […], and the result value was expressed as […].
# To investigate the anti-inflammatory effect of gancaonin N, the inventors pretreated RAW264.7 cells with gancaonin N, 2 hours before stimulation with LPS, and measured the amount of NO production as described in Examples 1 to 5 above to determine change in the amount of NO production according to the concentration of gancaonin N used to treat the cells.
# A549 cells = experiment: Cell viability analysis (MTT), A549 cells; assay type: cell-based, human; conditions: A549 cells, 5, 10, 20, 40 µM, 24 hours, compared to the control group (FIG. 1B)
# Experimental: as §3, §4, §5
structure (smiles),measurement,setting,value
"COc1ccc(-c2coc3cc(O)c(CC=C(C)C)c(O)c3c2=O)c(O)c1 [gancaonin N, 5,7-dihydroxy-3-(2-hydroxy-4-methoxyphenyl)-6-(3-methylbut-2-enyl)chromen-4-one]",protein expression of TNF-α,TNF-α,significantly inhibited
same,activity/protein expression levels of p65,p65; 5µM to 40 µM 2 hours before LPS treatment (FIG. 5C),significantly reduced
same,amount of gancaonin N at which the inhibitory effect on the activity/protein expression levels of p65 was most excellent,"p65; LPS, tested 5µM to 40 µM",40 µM
same,cell viability,RAW264.7 cells,did not decrease
same,activity/protein expression levels of p38,p38; 5µM to 40 µM 2 hours before LPS treatment (FIG. 5B),significantly reduced
same,amount of gancaonin N at which the inhibitory effect on the activity/protein expression levels of p38 was most excellent,"p38; LPS, tested 5µM to 40 µM",20 µM
same,protein expression of COX-2,COX-2,significantly inhibited
same,activity/protein expression levels of ERK,[1]; 5µM to 40 µM 2 hours before LPS treatment (FIG. 5A),significantly reduced
same,amount of gancaonin N at which the inhibitory effect on the activity/protein expression levels of ERK was most excellent,"[1]; LPS, tested 5µM to 40 µM",40 µM
same,production of NO,nitric oxide (NO),significantly decreased
same,cell viability,A549 cells,did not decrease
